The values that follow come from US20020049185A1, “Malonic acid based matrix metalloproteinase inhibitors” (ROCHE DIAGNOSTICS GMBH, priority 1994, published 2002).

The IC50 is the point on the concentration scale where inhibition reaches its midpoint. A high value points to a need for much substance.

The structures appear in SMILES notation. Residues, ends and D or L forms follow the SMILES beside them. *: point of attachment. NHOH = ON*

Assay [1] has as its target T1, catalytic domain (Met80-Gly242) of human neutrophil collagenase (Homo sapiens, UniProt P22894).
T1 construct: 8 nM catalytic domain (Met80-Gly242) of human neutrophil collagenase; made in house; host or cells: E. coli
Nature of the assay: Enzyme assay: inhibition of cleavage of a fluorogenic substrate by the HNC catalytic domain. It is filed as biochemical. As to conditions: HNC (MMP-8) catalytic domain, 25° C., substrate DNP-Pro-Leu-Gly-Leu-Trp-Ala-D-Arg-NH2. The protocol:
In order to determine the inhibition of MMPs, for example HNC, the catalytic domain (isolation and purification see example 1) is incubated with inhibitors having various concentrations. Subsequently, the initial reaction rate in the conversion of a standard substrate is measured in a manner analogous to F. Grams et al. (1993)^51.
The results are evaluated by plotting the reciprocal reaction rate against the concentration of the inhibitor. The inhibition constant (Ki) is obtained as the negative section of the abscissis by the graphical method according to M. Dixon (1953)^28.
The synthetic collagenase substrate is a heptapeptide which is coupled, at the […], with DNP (dinitrophenol). Said DNP residue quenches by steric hindrance the fluorescence of the adjacent tryptophane of the heptapeptide. After cleavage of a tripeptide which includes the DNP group, the tryptophane fluorescence increases. The proteolytic cleavage of the substrate therefore can be measured by the fluorescence value.
The assay was performed at 25° C. in a freshly prepared 50 mM Tris buffer (pH 8.0) treated with dithiozone to remove traces of heavy metals. 4 mM CaCl2 was added and the buffer saturated wtih argon. Stock solutions of adamalysin II were prepared by centrifugation of the protein from an ammonium sulfate suspension and subsequent dissolution in the assay buffer Stock solutions of collagenase were diluted with the assay buffer. Enzyme concentrations were determined by uv measurements (ε280=2.8·10^4 M^−1 cm^−1, ε288·2.2 10^4 M^−1 cm^−1) and the stock solutions were stored in the cold. This solution was diluted 1 100 to obtain the final 16 nM assay concentration. The fluorogenic substrate DNP-ProLeu-Gly-Leu-Trp-Ala-D-Arg-NH2 with a Km of 52 μM was used at a concentration of 21.4 μM, for the Ki determination a 12.8 μM concentration has also been used. Substrate fluorescence was measured at an excitation and emission wavelength of λ=[…], respectively, on a spectrofluorimeter (Perkin Elmer, Model 650-40) equipped with a thermostated cell holder. Substrate hydrolysis was monitored for 10 min. immediately after adding the enzyme. All reactions were performed at least in triplicate. The Ki values of the inhibitors were calculated from the intersection point of the straight lines obtained by the plots of vo/vi vs. [concentration of inhibitor], whereas IC50 values were calculated from plots of vi/vo [concentration of inhibitor] by non-linear regression with simple robust weighting.
50 mM Tris/HCl pH 7.6 (Tris=Tris-(hydroxymethyl)-aminomethan)
8 nM catalytic domain (Met80-Gly242) of human neutrophil collagenase
10 microM DNP-Pro-Leu-Gly-Leu-Trp-Ala-D-Arg-NH2
A solution of the enzyme and inhibitor in assay buffer (25° C.) was prepared. The reaction was started directly by giving the substrate into the solution. The cleavage of the flourogenic substrate was followed by flourescence spectroscopy with an excitation and emision wavelength of 280 and 350 nm, respectively. The IC50 value was calculated as the inhibitor concentration, which is necessary to decrease the velocity of the reaction to the half in comparison to the reaction without inhibitor.

Another assay addresses collagenase (Homo sapiens, UniProt P22894). Kind of assay: Affinity for collagenase (statement in text, HNC complex). It is filed as binding.
Another assay deals with MMPs. Kind of assay: Inhibition of MMPs. It is filed as biochemical.

T1 sequence (P22894 100-262): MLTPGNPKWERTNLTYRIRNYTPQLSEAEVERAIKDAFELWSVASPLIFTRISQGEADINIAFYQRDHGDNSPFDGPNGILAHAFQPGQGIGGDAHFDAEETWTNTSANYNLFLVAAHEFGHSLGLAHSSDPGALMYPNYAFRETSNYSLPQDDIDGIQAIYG
Sequence of collagenase (P22894 101-467): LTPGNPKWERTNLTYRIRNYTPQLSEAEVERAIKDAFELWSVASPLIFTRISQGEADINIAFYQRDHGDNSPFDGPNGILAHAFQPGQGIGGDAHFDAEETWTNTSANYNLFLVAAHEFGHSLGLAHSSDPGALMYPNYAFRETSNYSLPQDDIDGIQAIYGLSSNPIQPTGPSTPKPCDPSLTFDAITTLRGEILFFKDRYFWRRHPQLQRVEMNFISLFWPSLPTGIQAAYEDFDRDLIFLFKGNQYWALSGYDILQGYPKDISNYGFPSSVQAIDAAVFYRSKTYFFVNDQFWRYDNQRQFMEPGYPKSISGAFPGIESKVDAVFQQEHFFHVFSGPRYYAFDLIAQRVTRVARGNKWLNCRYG

In turn, `CC(C)CC(C(=O)NO)C(=O)NC(Cc1ccccc1)C(=O)NCc1ccccc1` (mixture of isomers) [ER074, HONH-iBM-Phe-NHBn] displayed an IC50 in assay [1] of 29 µM.
Turning to `CC(C)C[C@H](NC(=O)[C@@H]1CCCN1)C(=O)NCC(=O)NO` [PLG-NHOH, L-prolyl-L-leucyl-glycin-hydroxamate] (H-Pro-Leu-Gly-{NHOH}), the “affinity for collagenase (in words)” value at collagenase is reported as “relatively weak”.
As for `Cc1ccc(CCNC(=O)C(CCc2ccccc2)NC(=O)C(CC(C)C)C(=O)NO)cc1` (mixture of isomers) [ER070, HONH-iBM-Homophe-NHCH2CH2Ph(p-Me)], the IC50 in assay [1] stood at 1.6 µM.
Still for that read-out and setting: then `CC(C)CC(C(=O)NO)C(=O)NC(CO)C(=O)NCC(=O)NCc1ccccc1` (mixture of isomers) [ER059, HONH-iBM-Ser-Gly-NHBn], with 61 µM.
In assay [1], `CC(C)CC(C(=O)NO)C(=O)N[C@@H](C)C(=O)NCC(N)=O` (stereo partly drawn) [ER029, HONH-2-isobutylmalonyl-L-alanyl glycinamide, reference compound] gave a concentration for half-maximal inhibition (IC50) of 139 µM. For the same molecule, in the assay on MMPs, the “inhibition of MMPs (in words)” value is “very poorly”.
`CC(C)CC(C(=O)NO)C(=O)NC(CO)C(=O)NCc1ccccc1` (mixture of isomers) [ER028, HONH-iBM-Ser-NHBn] gave a 50% inhibitory concentration (IC50) in assay [1] of 40 µM.
Same read-out and setting: the same measure for `CC(C)CC(C(=O)NO)C(=O)NC(C)C(=O)NCc1ccccc1` (mixture of isomers) [ER014, HONH-iBM-Ala-NHBn]: 58 µM.
Still for that read-out and setting: the same measure for `CC(C)CC(C(=O)NO)C(=O)NC(CC(N)=O)C(=O)NCc1ccccc1` (mixture of isomers) [ER017, HONH-iBM-Asn-NHBn]: 63 µM.
The same measure, in the same setting: then `CC(C)CC(C(=O)NO)C(=O)NC(CC(N)=O)C(=O)NCc1cccc(N)c1` (mixture of isomers) [ER031, HONH-iBM-Asn-NHBn(m-NH2)], with 30 µM.
